Here are results for three molecules from ChEMBL document CHEMBL1148315, “Photoaffinity labeling of the anionic sites in Caco-2 cells mediating saturable transport of hydrophilic cations ranitidine and famotidine” (2004).

Format in all cases: functional, Homo sapiens
The subject of assay [1] is Caco-2. The assay is described as follows: Inhibition of irreversible increase in transepithelial electrical resistance across Caco-2 cell monolayer by the compound in the presence of 5 mM of famotidine.
In assay [2] the test system is Caco-2. The assay is described as follows: Inhibition of apical to basolateral transport of Ranitidine (100 uM) across Caco-2 cell monolayer in the presence of 300 uM of compound.
Assay [3] deals with Caco-2. Description: Inhibition of Ranitidine transport across Caco-2 cell monolayer by the compound (200 uM) After photoactivation at 254 nM.
Assay [4] has as its system Caco-2. Description: Ability to increase the transepithelial electrical resistance across Caco-2 cell monolayer at 200 uM concentration.

Structures are written as SMILES.

As for `N=C(N)Nc1nc(CSCCC(=N)NS(N)(=O)=O)cs1.[N-]=[N+]=Nc1ccc(C(=O)NCCSCc2csc(NC(=N)N)n2)cc1`, the Inhibition in assay [1] is 35%.

In the case of `CNC(=C[N+](=O)[O-])NCCSCc1ccc(CN(C)C)o1.[N-]=[N+]=Nc1ccc(C(=O)NCCSCc2csc(NC(=N)N)n2)cc1`, the Inhibition in assay [2] is on record as 40%; in assay [3], 35%.

On to `[N-]=[N+]=Nc1ccc(C(=O)NCCSCc2csc(NC(=N)N)n2)cc1`, for which, in assay [4], the Increase came to 120%.
